In patent publication US10123995B2, “Factor XIa inhibitors” (MERCK SHARP & DOHME CORP., priority 2015, dated 2018):

Legend:
[1] = molecular target: purified Human plasma kallikrein (Homo sapiens (Human), UniProt P03952); test: Kallikrein Assay; type: biochemical; settings: table titled Kalikrein inhibition (column head prints hFXIa), substrate Acetyl-K-P-R-AFC, pH 7.4
Protocol: (§1) The effectiveness of a compound of the present invention as an inhibitor of Kallikrein can be determined using a relevant purified serine protease, and an appropriate synthetic substrate. The rate of hydrolysis of the chromogenic or fluorogenic substrate by the relevant serine protease was measured both in the absence and presence of compounds of the present invention. Assays were conducted at room temperature or at 37° C. […] A decrease in the rate of fluorescence change in the presence of inhibitor is indicative of enzyme inhibition. Such methods are known to one skilled in the art. The results of this assay are expressed as the inhibitory constant, Ki.
Kallikrein determinations were made in 50 mM HEPES buffer at pH 7.4 containing 150 mM NaCl, 5 mM CaCl2, and 0.1% PEG 8000 (polyethylene glycol; Fisher Scientific). Determinations were made using purified Human plasma kallikrein at a final concentration of 0.5 nM (Enzyme Research Laboratories) and the synthetic substrate, Acetyl-K-P-R-AFC (Sigma # C6608) at a concentration of […].
Activity assays were performed by diluting a stock solution of substrate at least tenfold to a final concentration ≤0.2 Km into a solution containing enzyme or enzyme equilibrated with inhibitor. Times required to achieve equilibration between enzyme and inhibitor were determined in control experiments. The reactions were performed under linear progress curve conditions and fluorescence increase measured at 405 Ex/510 Em nm. Values were converted to percent inhibition of the control reaction (after subtracting 100% Inhibition value). IC50 was determined by inflection point from a four parameter logistic curve fit. Ki was calculated using the Cheng Prusoff equation, Ki=IC50/(1+([S]/Km)).

[2] = molecular target: purified human Factor XIa (Homo sapiens (Human), UniProt P03951); test: Factor XIa Assay; type: biochemical; settings: Factor XIa inhibition; substrate Z-Gly-Pro-Arg-AFC, pH 7.4; read-out: hFXIa IC50
Sequence of purified human Factor XIa (P03951 388-625): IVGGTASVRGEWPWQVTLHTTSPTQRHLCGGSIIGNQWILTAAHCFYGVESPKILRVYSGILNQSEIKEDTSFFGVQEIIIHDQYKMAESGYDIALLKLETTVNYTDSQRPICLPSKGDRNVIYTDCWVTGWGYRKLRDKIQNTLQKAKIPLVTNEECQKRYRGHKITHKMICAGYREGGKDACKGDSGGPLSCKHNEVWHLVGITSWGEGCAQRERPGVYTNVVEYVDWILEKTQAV
Sequence of purified human Factor XIa (P03951 19-387 partner): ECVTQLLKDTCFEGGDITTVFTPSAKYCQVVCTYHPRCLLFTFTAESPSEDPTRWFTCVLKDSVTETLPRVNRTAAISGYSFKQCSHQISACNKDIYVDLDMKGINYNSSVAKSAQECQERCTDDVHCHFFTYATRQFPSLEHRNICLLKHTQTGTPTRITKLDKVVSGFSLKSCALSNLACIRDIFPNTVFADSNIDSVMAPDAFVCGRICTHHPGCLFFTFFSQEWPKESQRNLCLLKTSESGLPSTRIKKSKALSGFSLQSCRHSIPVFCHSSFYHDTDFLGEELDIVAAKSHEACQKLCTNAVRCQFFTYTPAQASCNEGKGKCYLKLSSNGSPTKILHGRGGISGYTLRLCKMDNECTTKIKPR
Protocol: as §1, with “Coagulation Factor XIa” for “Kallikrein”, “The results of this assay are expressed as the inhibitory constant, Ki.” left out
Factor XIa determinations were made in 50 mM HEPES buffer at pH 7.4 containing 150 mM NaCl, 5 mM CaCl2, and 0.1% PEG 8000 (polyethylene glycol; JT Baker or Fisher Scientific). Determinations were made using purified human Factor XIa at a final concentration of 40 pM (Sekisui Diagnostics) and the synthetic substrate, Z-Gly-Pro-Arg-AFC, TFA salt (Sigma #C0980) at a concentration of 100 μM.
Activity assays were performed by diluting a stock solution of substrate at least tenfold to a final concentration ≤0.1 Km into a solution containing enzyme or enzyme equilibrated with inhibitor. Times required to achieve equilibration between enzyme and inhibitor were determined in control experiments. Initial velocities of product formation in the absence (Vo) or presence of inhibitor (Vi) were measured. Assuming competitive inhibition, and that unity is negligible compared Km/[S], [I]/e, and [I]/e (where [S], [I], and e respectively represent the total concentrations, of substrate, inhibitor and enzyme), the equilibrium constant (Ki) for dissociation of the inhibitor from the enzyme can be obtained from the dependence of Vo/Vi on [I] shown in the following equation. Vo/Vi=1+[I]/Ki

Sequence of purified Human plasma kallikrein (P03952 391-638): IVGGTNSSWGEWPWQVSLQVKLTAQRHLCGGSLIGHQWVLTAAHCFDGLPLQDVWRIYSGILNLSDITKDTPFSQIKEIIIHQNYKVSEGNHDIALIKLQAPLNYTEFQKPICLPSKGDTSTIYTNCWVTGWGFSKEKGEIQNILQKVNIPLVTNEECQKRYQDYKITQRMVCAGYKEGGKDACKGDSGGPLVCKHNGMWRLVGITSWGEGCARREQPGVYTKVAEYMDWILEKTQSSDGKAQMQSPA
Sequence of purified Human plasma kallikrein (P03952 20-390 partner): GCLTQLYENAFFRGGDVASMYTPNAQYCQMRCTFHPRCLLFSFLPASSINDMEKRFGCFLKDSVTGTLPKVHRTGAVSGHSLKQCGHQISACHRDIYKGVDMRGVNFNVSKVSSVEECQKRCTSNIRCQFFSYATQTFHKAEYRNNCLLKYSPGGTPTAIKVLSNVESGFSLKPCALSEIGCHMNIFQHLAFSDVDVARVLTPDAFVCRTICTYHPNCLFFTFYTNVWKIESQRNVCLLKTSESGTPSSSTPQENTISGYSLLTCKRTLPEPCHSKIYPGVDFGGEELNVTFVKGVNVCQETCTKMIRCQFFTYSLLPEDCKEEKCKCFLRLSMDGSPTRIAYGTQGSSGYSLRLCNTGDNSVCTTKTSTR

Row | SMILES | IC50 [1] [nM] | IC50 [2] [nM]
1 | O=C(O)c1ccc(NC(=O)C2(O)CCc3cc(-c4cc(Cl)ccc4-n4cnnn4)c[n+]([O-])c32)cc1 (stereo not shown) [Example 19, 4-[({3-[5-Chloro-2-(1H-tetrazol-1-yl)phenyl]-7-hydroxy-1-oxido-6,7-dihydro-5H-cyclopenta[b]pyridin-7-yl}carbonyl)amino]benzoic acid] | 1370 | 6
2 | O=C(O)c1ccc(NC(=O)C2(O)CC(F)c3cc(-c4cc(Cl)ccc4-n4cnnn4)c[n+]([O-])c32)cc1 (single isomer, unassigned) [Example 13, 4-[({3-[5-Chloro-2-(1H-tetrazol-1-yl)phenyl]-5-fluoro-7-hydroxy-1-oxido-6,7-dihydro-5H-cyclopenta[b]pyridin-7-yl}carbonyl)amino]benzoic acid] | 202 | 3.7
